Here are results for one molecule from BindingDB's records for patent US9108978 (Monash University, 2015).

This assay addresses T1, Bifunctional ligase/repressor BirA (Staphylococcus aureus, UniProt A0A3A5LBF0).
T1 sequence (A0A3A5LBF0 whole entry): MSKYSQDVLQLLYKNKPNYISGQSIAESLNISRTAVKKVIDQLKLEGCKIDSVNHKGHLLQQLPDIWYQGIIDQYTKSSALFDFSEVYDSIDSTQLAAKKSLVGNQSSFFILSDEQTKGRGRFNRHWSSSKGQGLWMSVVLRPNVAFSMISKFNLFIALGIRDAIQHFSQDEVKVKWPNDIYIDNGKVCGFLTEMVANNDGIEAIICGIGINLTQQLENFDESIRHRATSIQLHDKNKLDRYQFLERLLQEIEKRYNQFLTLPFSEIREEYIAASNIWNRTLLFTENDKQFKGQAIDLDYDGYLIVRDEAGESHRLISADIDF
The experiment in a line: Enzyme Inhibition Assay. To be noted: pH 8; 37 °C. Here is the method: The reaction was initiated by the addition of BPL to a final concentration of 4 nM. After 20 minutes at 37 C., 4 uL aliquots of the reaction were spotted onto Whatman paper pre-treated with biotin and trichloroacetic acid. The filters were washed twice with 10% v/v ice-cold trichloroacetic acid and once with ethanol before air-drying. Quantitation of protein-bound radiolabelled biotin was performed by liquid scintillation. One unit of enzyme activity was defined by the amount of BPL required to incorporate 1 nmol of biotin per minute. The IC50 value of each compound was determined.

SMILES strings stand for the structures.

In turn, `Nc1ncnc2c1ncn2[C@@H]1O[C@H](COP(=O)(O)OCCCCC[C@@H]2SC[C@@H]3NC(=O)N[C@@H]32)[C@@H](O)[C@H]1O` [US9108978, 2.02] yielded an IC50 of 203 nM and a Ki of 30 nM.
